16 compounds from patent US10538555B2, “Macrocyclic inhibitors of the PD-1/PD-L1 and CD80(B7-1)/PD-L1 protein/protein interactions” (BRISTOL-MYERS SQUIBB COMPANY, priority 2014, dated 2020) can be followed below.

The assay deals with T1, Human PD-L1/PD-1 (Homo sapiens, UniProt Q9NZQ7).
T1 construct: TVMV protease cleavage site (C); made in house; host or cells: HEK293T cells
Nature of the assay: HTRF Human PD-L1/PD-1 binding assay (PD-1-Ig/PD-L1-His). The conditions noted are these: PD-L1-His 10 nM, PD-1-Ig 20 nM; class symbol; read-out: HTRF Human PD-L1/PD-1 Binding Assay IC50 Range. An outline of the steps: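 HTRF competition using HEK293T-expressed human PD-1(25-167)-Ig at 20 nM and PD-L1(18-239)-His at 10 nM, compound incubated first with PD-L1 for 15 min, then with PD-1 for 15 min. Signal read as 665/620 nm ratio 30 min after adding Eu anti-Ig and APC anti-His antibodies.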

*1 amine or outer side, *2 acyl side, *3 side chain or, on linkers, in order; H or OH if unused. Where a SMILES comes first, the peptide text is derived from it. Bridges are numbered along the chain shown (N, C = ends). [ ]: non-standard residue; d: D form. ξ: configuration not given here. Phe(3,4,5-F3) = N[C@@H](Cc1cc(F)c(F)c(F)c1)C(=O)O; d(cisHyp) = O=C(O)[C@H]1C[C@@H](O)CN1; Phe(2-F) = N[C@@H](Cc1ccccc1F)C(=O)O; Hyp = O=C(O)[C@@H]1C[C@@H](O)CN1; NMeF = CN[C@@H](Cc1ccccc1)C(=O)O; X1 = O=C([C@H]1COCCN1[*:1])[*:2]; NMeNle = CCCC[C@H](NC)C(=O)O; hSer = N[C@@H](CCO)C(=O)O; NMeA = CN[C@@H](C)C(=O)O; Orn = NCCC[C@H](N)C(=O)O; Dab = NCC[C@H](N)C(=O)O; Dap = NC[C@H](N)C(=O)O; ξC = NC(CS)C(=O)O; Sar = CNCC(=O)O

T1 sequence (Q9NZQ7 with tags, fused parts or gaps): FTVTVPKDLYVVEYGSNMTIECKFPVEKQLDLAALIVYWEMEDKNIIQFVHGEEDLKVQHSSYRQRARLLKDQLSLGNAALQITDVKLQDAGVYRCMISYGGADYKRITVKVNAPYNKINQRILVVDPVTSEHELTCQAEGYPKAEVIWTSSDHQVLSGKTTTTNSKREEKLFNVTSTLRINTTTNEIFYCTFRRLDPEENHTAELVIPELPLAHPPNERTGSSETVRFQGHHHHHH

For `CCCC[C@H]1C(=O)N2C[C@H](O)C[C@@H]2C(=O)N[C@@H](CC(=O)O)C(=O)N[C@@H](C(C)C)C(=O)N(C)[C@@H](Cc2ccccc2)C(=O)N[C@@H](CCC(=O)O)C(=O)N2CCC[C@@H]2C(=O)N[C@@H](Cc2c[nH]c3ccccc23)C(=O)N[C@@H](Cc2ccc(O)cc2)C(=O)N[C@@H](CCOC)C(=O)N[C@H](C(=O)NCC(N)=O)CSCC(=O)N[C@@H](Cc2cc(F)c(F)c(F)c2)C(=O)N(C)[C@@H](Cc2ccccc2)C(=O)N1C` [Example 10193] ({CH2CO}-[Phe(3,4,5-F3)][NMeF][NMeNle][d(cisHyp)]DV[NMeF]E[dP]WY[hSer](Me)CG-NH2; thioether N-13), the IC50 was in the range of 1 to 9.9 nM.

Regarding `CCCC[C@H]1C(=O)N2C[C@H](O)C[C@@H]2C(=O)N[C@@H](CC(=O)O)C(=O)N[C@@H](C(C)C)C(=O)N(C)[C@@H](Cc2ccccc2)C(=O)N[C@@H](CCOC)C(=O)N2CCOC[C@@H]2C(=O)N[C@@H](Cc2c[nH]c3ccccc23)C(=O)N[C@@H](Cc2ccc(O)cc2)C(=O)N[C@@H](CC(C)C)C(=O)N[C@H](C(=O)NCC(N)=O)CSCC(=O)N[C@@H](Cc2cc(F)c(F)c(F)c2)C(=O)N(C)[C@@H](Cc2ccccc2)C(=O)N1C` [Example 10194] ({CH2CO}-[Phe(3,4,5-F3)][NMeF][NMeNle][d(cisHyp)]DV[NMeF][hSer](Me)[X1]WYLCG-NH2; thioether N-13), the IC50 was 10 to 99.9 nM. For `CCCC[C@H]1C(=O)N2C[C@H](O)C[C@@H]2C(=O)N[C@@H](CC(=O)O)C(=O)N[C@@H](C(C)C)C(=O)N(C)[C@@H](Cc2ccccc2)C(=O)N[C@@H](Cc2ccc(O)cc2)C(=O)N2CCOC[C@@H]2C(=O)N[C@@H](Cc2c[nH]c3ccccc23)C(=O)N[C@@H](Cc2ccccc2F)C(=O)N[C@@H](CC(C)C)C(=O)N[C@H](C(=O)NCC(N)=O)CSCC(=O)N[C@@H](Cc2cc(F)c(F)c(F)c2)C(=O)N(C)[C@@H](Cc2ccccc2)C(=O)N1C` [Example 10195] ({CH2CO}-[Phe(3,4,5-F3)][NMeF][NMeNle][d(cisHyp)]DV[NMeF]Y[X1]W[Phe(2-F)]LCG-NH2; thioether N-13) the value was 1 to 9.9 nM; for `CCCC[C@H]1C(=O)N[C@@H](CC(N)=O)C(=O)N2CCC[C@H]2CN[C@@H](CO)C(=O)N[C@@H](CCO)C(=O)N2CCC[C@H]2C(=O)N[C@@H](Cc2c[nH]c3ccccc23)C(=O)N[C@@H](CN)C(=O)N[C@@H](Cc2c[nH]c3ccccc23)C(=O)N(C)[C@@H](C)C(=O)N(C)[C@@H](C)C(=O)N[C@@H](CCCNC(=N)N)C(=O)NC(C(=O)NCC(N)=O)CSCC(=O)N[C@@H](Cc2ccc(O)cc2)C(=O)N1C` (stereo partly shown) [Example 10196], 1000 to 10000 nM; for `CCCC[C@H]1C(=O)N[C@@H](CC(N)=O)C(=O)N2CCC[C@H]2CN[C@@H](CO)C(=O)N[C@@H](CCO)C(=O)N2CCC[C@H]2C(=O)N[C@@H](Cc2c[nH]c3ccccc23)C(=O)N[C@@H](CCN)C(=O)N[C@@H](Cc2c[nH]c3ccccc23)C(=O)N(C)[C@@H](C)C(=O)N(C)[C@@H](C)C(=O)N[C@@H](CCCNC(=N)N)C(=O)NC(C(=O)NCC(N)=O)CSCC(=O)N[C@@H](Cc2ccc(O)cc2)C(=O)N1C` (stereo partly shown) [Example 10197], 1000 to 10000 nM. For `CCCC[C@H]1C(=O)N[C@@H](CC(N)=O)C(=O)N2CCC[C@H]2C(=O)N[C@@H](CO)C(=O)N[C@@H](CCO)C(=O)N2CCC[C@H]2C(=O)N[C@@H](Cc2c[nH]c3ccccc23)C(=O)N[C@@H](CCCN)C(=O)N[C@@H](Cc2c[nH]c3ccccc23)C(=O)N(C)[C@@H](C)C(=O)N(C)[C@@H](C)C(=O)N[C@@H](CCCNC(=N)N)C(=O)NC(C(=O)NCC(N)=O)CSCC(=O)N[C@@H](Cc2ccc(O)cc2)C(=O)N1C` (stereo partly shown) [Example 10198] ({CH2CO}-Y[NMeNle]NPS[hSer]PW[Orn]W[NMeA][NMeA]R[ξC]G-NH2; thioether N-14) the value was 1000 to 10000 nM; for `CCCC[C@H]1C(=O)N[C@@H](CC(N)=O)C(=O)N2CCC[C@H]2C(=O)N[C@@H](CO)C(=O)N[C@@H](CCO)C(=O)N2C[C@H](O)C[C@H]2C(=O)N[C@@H](Cc2c[nH]c3ccccc23)C(=O)N[C@@H](CN)C(=O)N[C@@H](Cc2c[nH]c3ccccc23)C(=O)N(C)[C@@H](C)C(=O)N(C)[C@@H](C)C(=O)N[C@@H](CCCNC(=N)N)C(=O)NC(C(=O)NCC(N)=O)CSCC(=O)N[C@@H](Cc2ccc(O)cc2)C(=O)N1C` (stereo partly shown) [Example 10199] ({CH2CO}-Y[NMeNle]NPS[hSer][Hyp]W[Dap]W[NMeA][NMeA]R[ξC]G-NH2; thioether N-14), 1000 to 10000 nM; for `CCCC[C@H]1C(=O)N[C@@H](CC(N)=O)C(=O)N2CCC[C@H]2C(=O)N[C@@H](CO)C(=O)N[C@@H](CCO)C(=O)N2C[C@H](O)C[C@H]2C(=O)N[C@@H](Cc2c[nH]c3ccccc23)C(=O)N[C@@H](CCN)C(=O)N[C@@H](Cc2c[nH]c3ccccc23)C(=O)N(C)[C@@H](C)C(=O)N(C)[C@@H](C)C(=O)N[C@@H](CCCNC(=N)N)C(=O)NC(C(=O)NCC(N)=O)CSCC(=O)N[C@@H](Cc2ccc(O)cc2)C(=O)N1C` (stereo partly shown) [Example 10200] ({CH2CO}-Y[NMeNle]NPS[hSer][Hyp]W[Dab]W[NMeA][NMeA]R[ξC]G-NH2; thioether N-14), 1000 to 10000 nM. On to `CCCC[C@H]1C(=O)N[C@@H](CC(N)=O)C(=O)N2CCC[C@H]2C(=O)N[C@@H](CO)C(=O)N[C@@H](CCO)C(=O)N2C[C@H](O)C[C@H]2C(=O)N[C@@H](Cc2c[nH]c3ccccc23)C(=O)N[C@@H](CCCN)C(=O)N[C@@H](Cc2c[nH]c3ccccc23)C(=O)N(C)[C@@H](C)C(=O)N(C)[C@@H](C)C(=O)N[C@@H](CCCNC(=N)N)C(=O)NC(C(=O)NCC(N)=O)CSCC(=O)N[C@@H](Cc2ccc(O)cc2)C(=O)N1C` (stereo partly shown) [Example 10201] ({CH2CO}-Y[NMeNle]NPS[hSer][Hyp]W[Orn]W[NMeA][NMeA]R[ξC]G-NH2; thioether N-14), for which the IC50 fell in the range of 1000 to 10000 nM.

As to `CCCC[C@H]1C(=O)N[C@@H](CC(N)=O)C(=O)N2CCC[C@H]2C(=O)N[C@@H](CO)C(=O)N[C@@H](CCO)C(=O)N2CCC[C@H]2C(=O)N[C@@H](Cc2c[nH]c3ccccc23)C(=O)N[C@@H](CN)C(=O)N[C@@H](Cc2c[nH]c3ccccc23)C(=O)N(C)[C@@H](C)C(=O)N(C)[C@@H](C)C(=O)N[C@@H](CCCNC(=N)N)C(=O)NC(C(=O)NCC(N)=O)CSCC(=O)N[C@@H](Cc2ccc(O)cc2)C(=O)N1C` (stereo partly shown) [Example 10202] ({CH2CO}-Y[NMeNle]NPS[hSer]PW[Dap]W[NMeA][NMeA]R[ξC]G-NH2; thioether N-14), the IC50 was 1000 to 10000 nM. Turning to `CCCC[C@H]1C(=O)N[C@@H](CC(N)=O)C(=O)N2CCC[C@H]2C(=O)N[C@@H](CO)C(=O)N[C@@H](CCO)C(=O)N2CCC[C@H]2C(=O)N[C@@H](Cc2c[nH]c3ccccc23)C(=O)N[C@@H](CCN)C(=O)N[C@@H](Cc2c[nH]c3ccccc23)C(=O)N(C)[C@@H](C)C(=O)N(C)[C@@H](C)C(=O)N[C@@H](CCCNC(=N)N)C(=O)NC(C(=O)NCC(N)=O)CSCC(=O)N[C@@H](Cc2ccc(O)cc2)C(=O)N1C` (stereo partly shown) [Example 10203] ({CH2CO}-Y[NMeNle]NPS[hSer]PW[Dab]W[NMeA][NMeA]R[ξC]G-NH2; thioether N-14), the IC50 was 1000 to 10000 nM.

As to `CCCC[C@H]1C(=O)N[C@@H](CC(N)=O)C(=O)N2CCC[C@H]2C(=O)N[C@@H](CO)C(=O)N[C@@H](CCO)C(=O)N2CCC[C@H]2C(=O)N[C@@H](Cc2c[nH]c3ccccc23)C(=O)N[C@@H](CCCN)C(=O)N[C@@H](Cc2c[nH]c3ccccc23)C(=O)N(C)[C@@H](C)C(=O)N(C)CC(=O)N[C@@H](CCCNC(=N)N)C(=O)NC(C(=O)NCC(N)=O)CSCC(=O)N[C@@H](Cc2ccc(O)cc2)C(=O)N1C` (stereo partly shown) [Example 10204] ({CH2CO}-Y[NMeNle]NPS[hSer]PW[Orn]W[NMeA][Sar]R[ξC]G-NH2; thioether N-14), the IC50 lay in the range of 1000 to 10000 nM.

Take `CCCC[C@H]1C(=O)N[C@@H](CC(N)=O)C(=O)N2CCC[C@H]2C(=O)N[C@@H](CO)C(=O)N[C@@H](CCO)C(=O)N2C[C@H](O)C[C@H]2C(=O)N[C@@H](Cc2c[nH]c3ccccc23)C(=O)N[C@@H](CN)C(=O)N[C@@H](Cc2c[nH]c3ccccc23)C(=O)N(C)[C@@H](C)C(=O)N(C)CC(=O)N[C@@H](CCCNC(=N)N)C(=O)NC(C(=O)NCC(N)=O)CSCC(=O)N[C@@H](Cc2ccc(O)cc2)C(=O)N1C` (stereo partly shown) [Example 10205] ({CH2CO}-Y[NMeNle]NPS[hSer][Hyp]W[Dap]W[NMeA][Sar]R[ξC]G-NH2; thioether N-14): the IC50 was in the range of 1000 to 10000 nM. For `CCCC[C@H]1C(=O)N[C@@H](CC(N)=O)C(=O)N2CCC[C@H]2C(=O)N[C@@H](CO)C(=O)N[C@@H](CCO)C(=O)N2C[C@H](O)C[C@H]2C(=O)N[C@@H](Cc2c[nH]c3ccccc23)C(=O)N[C@@H](CCN)C(=O)N[C@@H](Cc2c[nH]c3ccccc23)C(=O)N(C)[C@@H](C)C(=O)N(C)CC(=O)N[C@@H](CCCNC(=N)N)C(=O)NC(C(=O)NCC(N)=O)CSCC(=O)N[C@@H](Cc2ccc(O)cc2)C(=O)N1C` (stereo partly shown) [Example 10206] ({CH2CO}-Y[NMeNle]NPS[hSer][Hyp]W[Dab]W[NMeA][Sar]R[ξC]G-NH2; thioether N-14) the value was 1000 to 10000 nM; for `CCCC[C@H]1C(=O)N[C@@H](CC(N)=O)C(=O)N2CCC[C@H]2C(=O)N[C@@H](CO)C(=O)N[C@@H](CCO)C(=O)N2C[C@H](O)C[C@H]2C(=O)N[C@@H](Cc2c[nH]c3ccccc23)C(=O)N[C@@H](CCCN)C(=O)N[C@@H](Cc2c[nH]c3ccccc23)C(=O)N(C)[C@@H](C)C(=O)N(C)CC(=O)N[C@@H](CCCNC(=N)N)C(=O)NC(C(=O)NCC(N)=O)CSCC(=O)N[C@@H](Cc2ccc(O)cc2)C(=O)N1C` (stereo partly shown) [Example 10207] ({CH2CO}-Y[NMeNle]NPS[hSer][Hyp]W[Orn]W[NMeA][Sar]R[ξC]G-NH2; thioether N-14), 1000 to 10000 nM; for `CCCC[C@H]1C(=O)N[C@@H](CC(N)=O)C(=O)N2CCC[C@H]2C(=O)N[C@@H](CO)C(=O)N[C@@H](CCO)C(=O)N2CCC[C@H]2C(=O)N[C@@H](Cc2c[nH]c3ccccc23)C(=O)N[C@@H](CO)C(=O)N[C@@H](Cc2c[nH]c3ccccc23)C(=O)N(C)[C@@H](C)C(=O)N(C)[C@@H](C)C(=O)N[C@@H](CCCCN)C(=O)NC(C(=O)NCC(N)=O)CSCC(=O)N[C@@H](Cc2ccc(O)cc2)C(=O)N1C` (stereo partly shown) [Example 10208] ({CH2CO}-Y[NMeNle]NPS[hSer]PWSW[NMeA][NMeA]K[ξC]G-NH2; thioether N-14), 1000 to 10000 nM.
